Test results reported in publication PMC4121215, “Cytotoxic Constituents from the Rhizomes of Curcuma zedoaria” (The Scientific World Journal, 2014).
In brackets after ≈: the same amount, converted by molar mass.

Key:
Assay type in all cases: cell-based
PC-3 (prostate cancer) = assay: MTT cytotoxicity assay, PC-3; conditions: for IC50: Homo sapiens, MTT, 72 h, mean ± SD of three replicates; for IC50 / SI (selectivity index) PC-3: isolated compounds; for antiproliferative/cytotoxic activity against PC-3 (in words): MTT assay; for SI (selectivity index) PC-3: IC50 HUVEC / IC50 PC-3
Description: (§1) The human cell lines MCF-7 (breast cancer), Ca Ski (cervical cancer), and HT-29 (colon cancer) were cultured as monolayer in RPMI 1640 growth media. HUVEC (human umbilical vein endothelial cells) and PC-3 (prostate cancer) cells were cultured in DMEM. All cells were purchased from the American Tissue Culture Collection (ATCC, USA) except for human umbilical vein endothelial cells (HUVEC) which were obtained from ScienCell Research Laboratories (Carlsbad, CA). All the media were supplemented with 10% v/v foetal bovine serum (FBS), 100 μg/mL penicillin/streptomycin, and 50 μg/mL amphotericin B. The cells were cultured in a 5% CO2 incubator at 37°C.
(§2) Cell viability was investigated using 3-(4, 5-dimethylthiazol-2-yl)-2, 5-diphenyltetrazolium bromide (MTT) assay. Cells were detached from the […] tissue culture flask when it achieved 80% confluency. The detached cells were pellet by centrifugation (1,000 rpm; 5 minutes). Cells (3.0 × 10^4 cells/mL) were seeded onto a 96-well microtiter plate (Nunc). The cells were incubated at 37°C CO2 incubator for 24 h to give adherent cells. The test compounds (1–100 μg/mL) were added onto the 96-well microtiter plate containing adherent cells. The untreated cells were incubated in 10% media containing 0.5% DMSO (without addition of any test compounds/extracts). This mixture was regarded as the negative control whereas doxorubicin as the positive control. The plates were incubated for 72 h at 37°C in a 5% CO2 incubator. After 72 h, the media were removed and 100 μL of fresh medium and 20 μL of MTT (Sigma, filter sterile, 5 mg/mL) were added to each well and further incubated for 4 hours (37°C) after which the media were substituted with 150 μL DMSO. The 96-well microtiter plates were then agitated at room temperature onto an incubator shaker to dissolve the formazan crystals. The absorbance (A) of the content of the plates was measured at 540 nm using a microplate reader. The percentage of inhibition of each test sample was calculated according to the following formula: Percentage of inhibition (%) = (A control − A sample)/A control × 100%. The average of three replicates was then obtained. The IC50 for each extract was extrapolated from the graphs of the percentage inhibition versus concentration of test agents. Cytotoxicity of each test agent is expressed as IC50 value. The IC50 value is the concentration of test agents that cause 50% inhibition or cell death, averaged from the three experiments. The selectivity index (SI) was also calculated as described by using the ratio between IC50 of the extract or compounds on normal cell lines (HUVEC) and IC50 of the tested extract or compounds on cancerous cell lines. Selectivity index (SI) values equal or greater than three were considered to have a high selectivity towards cancerous cells. An SI value denotes the selectivity of the sample to the tested cell lines.

HT-29 (colon cancer) = assay: MTT cytotoxicity assay, HT-29; conditions: for IC50: Homo sapiens, HT-29, MTT, 72 h, mean ± SD of three replicates; for IC50 / SI (selectivity index) HT-29: isolated compounds; for antiproliferative/cytotoxic activity against HT-29 (in words): MTT assay; for SI (selectivity index) HT-29: IC50 HUVEC / IC50 HT-29
Description: as §1, §2

Ca Ski (cervical cancer) = assay: cells; conditions: for IC50: Homo sapiens, Ca-Ski, MTT, 72 h, mean ± SD of three replicates; for IC50 / SI (selectivity index) Ca Ski: isolated compounds; for SI (selectivity index) Ca Ski: IC50 HUVEC / IC50 Ca Ski
Description: as §1, §2

MCF-7 (breast cancer) = assay: cells; conditions: for IC50: Homo sapiens, MCF7, MTT, 72 h, mean ± SD of three replicates; for IC50 / SI (selectivity index) MCF-7: isolated compounds; for SI (selectivity index) MCF-7: IC50 HUVEC / IC50 MCF-7
Description: as §1, §2

[1] = test system: HUVEC (human umbilical vein endothelial cells); assay: cells; conditions: Homo sapiens, HUVEC; isolated compounds; MTT, 72 h; normal cells
Description: as §1, §2

Structure (SMILES) | IC50 (PC-3 (prostate cancer)) [µg/mL] | antiproliferative/cytotoxic activity against PC-3 (in words) (PC-3 (prostate cancer)) | SI (selectivity index) PC-3 (PC-3 (prostate cancer)) | IC50 (HT-29 (colon cancer)) [µg/mL] | antiproliferative/cytotoxic activity against HT-29 (in words) (HT-29 (colon cancer)) | SI (selectivity index) HT-29 (HT-29 (colon cancer)) | IC50 (Ca Ski (cervical cancer)) [µg/mL] | SI (selectivity index) Ca Ski (Ca Ski (cervical cancer)) | IC50 (MCF-7 (breast cancer)) [µg/mL] | SI (selectivity index) MCF-7 (MCF-7 (breast cancer)) | IC50 [1] [µg/mL] | antiproliferative/cytotoxic activity against Ca Ski (in words) (Ca Ski (cervical cancer); MTT assay) | antiproliferative/cytotoxic activity against MCF-7 (in words) (MCF-7 (breast cancer); MTT assay)
CC1=CCCC2(C)OC2C(=O)c2c(C)coc2C1 (centres unmarked) [Compound 9, zederone] | 27 ± 1.9 (≈ 110 µM) | moderate inhibitory activity | 1.6 | 19.1 ± 2.5 (≈ 77.5 µM) | moderate inhibitory activity | 2.2 | > 100 | 0.4 | > 100 | 0.4 | 42.1 ± 2.7 (≈ 171 µM) | – | –
C=C1CC[C@H]2C(C)(C)CCC[C@]2(C)[C@H]1C/C=C(/C=O)CC=O [Compound 1, labda-8(17),12 diene-15,16 dial] | 26.3 ± 2.4 (≈ 87 µM) | moderate inhibitory activity | 1.7 | 21.5 ± 3.1 (≈ 71.1 µM) | moderate inhibitory activity | 2.1 | 14.5 ± 0.1 (≈ 47.9 µM) | 3.1 | 16.3 ± 0.2 (≈ 53.9 µM) | 2.8 | 45.3 ± 1.9 (≈ 150 µM) | moderate cytotoxicity | moderate cytotoxicity
CC1=CC(=O)C(=C(C)C)C[C@H]2[C@H]1CC[C@]2(C)O [Compound 6, procurcumenol] | 13.3 ± 1.7 (≈ 56.8 µM) | good cytotoxic effect | 1.2 | 15.5 ± 2.3 (≈ 66.1 µM) | good cytotoxic effect | 1.1 | 62.4 ± 0.3 (≈ 266 µM) | 0.3 | 16.1 ± 2.2 (≈ 68.7 µM) | 1.0 | 16.3 ± 1 (≈ 69.6 µM) | – | –
C=C1CC[C@H]2C(C)(C)CCC[C@]2(C)[C@H]1C/C=C(/C=O)CC(OC)OC [Compound 13, calcaratarin A] | 41.7 ± 3.4 (≈ 120 µM) | – | 1.1 | 48.3 ± 5.1 (≈ 139 µM) | – | 1.0 | – | – | 62.5 ± 4.8 (≈ 179 µM) | 0.8 | 47.3 ± 4.2 (≈ 136 µM) | – | –
CC(C)=C1C/C=C(\C)CC[C@H]2O[C@@]2(C)CC1=O [Compound 15, germacrone-1,10-epoxide] | 53.2 ± 4.9 (≈ 227 µM) | – | 1.0 | 72.8 ± 8.3 (≈ 311 µM) | – | 0.8 | – | – | 61.2 ± 5.8 (≈ 261 µM) | 0.9 | 55.5 ± 1.6 (≈ 237 µM) | – | –
CC1=CC2(O)OC3(CC2=C(C)C)C(C)CCC13 (centres unmarked) [Compound 10, 9-isopropylidene-2,6-dimethyl-11-oxatricyclo[6.2.1.0^1,5]undec-6-en-8-ol] | – | – | – | – | – | – | > 100 | < 0.7 | > 100 | < 0.7 | 71.7 ± 6.1 (≈ 306 µM) | – | –
C=C1CC(=O)C(=C(C)C)C[C@H]2[C@H]1CC[C@]2(C)O [Compound 14, isoprocurcumenol] | 37.4 ± 4.5 (≈ 160 µM) | – | 1.2 | 51.6 ± 3.9 (≈ 220 µM) | – | 0.9 | – | – | 58.8 ± 4.2 (≈ 251 µM) | 0.8 | 45.1 ± 3 (≈ 192 µM) | – | –
CC1=CCCC2(C)OC2CC(=C(C)C)C(=O)C1 (centres unmarked) [Compound 12, germacrone-4,5-epoxide] | 43.9 ± 7.2 (≈ 187 µM) | – | 1.1 | 39.6 ± 4.6 (≈ 169 µM) | – | 1.2 | – | – | 37.2 ± 4 (≈ 159 µM) | 1.3 | 48.4 ± 4.7 (≈ 207 µM) | – | –
COc1cccc2c1C(=O)c1c(O)c3c(c(O)c1C2=O)C[C@@](O)(C(=O)CO)C[C@@H]3O[C@H]1C[C@H](N)[C@H](O)[C@H](C)O1 [doxorubicin, reference compound] | – | – | – | – | – | – | 0.2 ± 1 (≈ 0.368 µM) | – | 0.1 (≈ 0.184 µM) | – | 1.4 (≈ 2.58 µM) | – | –
